{"source": "patent US8440893B2", "about": "“Therapeutic agent for rheumatoid arthritis” (St. Marianna University School of Medicine, priority 2006, dated 2013)", "key": {"macrophages": {"system": "macrophages", "assay": "Inflammatory cytokine production (ELISA), macrophages", "format": "cell-based, human", "conditions": "for Concentration of cytokines produced by macrophage, IL-1β: medium only 8.1; for Concentration of cytokines produced by macrophage, TNF-α: medium only 122", "procedure": "After obtaining informed consent, 50 mL of blood was collected from healthy individuals, and 1% heparin-added blood was acquired. Centrifuge tubes in which this blood was layered on top of a lymphocyte separation liquid were centrifuged at 1500 rpm for 30 minutes to isolate lymphocytes and macrophages individually. The cells were cultured using an RPMI medium supplemented with inactivated fetal bovine serum (FBS, manufactured by TRACE) at 10% of the medium volume, and also with 2 mM L-glutamine, 25 mM HEPES, and 100 units/mL of penicillin and streptomycin, in a CO2 incubator set at 5% CO2+95% air (normoxic conditions) at 37° C. under saturated humidity.\nEffects of C60 on the production of inflammatory cytokines in each type of cell were analyzed using the enzyme-linked immunosorbent assay method (ELISA).\nEach type of cell that was isolated and cultured to subconfluency by the above method was seeded into a 24-well culture plate at 1×10^5 cells/well. After culturing for 12 hours, the cells were washed with PBS, the medium was exchanged to fresh DMEM containing 10% FBS, and tumor necrosis factor TNF-α was added. The concentration of C60 treatment was 0.1, 1.0, or 10.0 μM, and the concentration of TNF-α treatment was 10.0 ng/mL. Each type of cell was cultured with C60 for 24 hours in the presence or absence of TNF-α, and then the culture solution was collected.\nThe concentrations of inflammatory cytokines TNF-α and interleukin (IL)-1β in the culture supernatant were determined using a ELISA kit, which is a standard technique currently known in the art. The ELISA was performed by the following standard method: the diluted culture supernatant sample was added into a sensitized plate at 100 μl per well, and the plate was left still for one hour at room temperature (primary reaction). After the primary reaction, the wells were sufficiently washed with PBS using a wash bottle four times or more. Horseradish peroxidase (HRP)-labeled goat anti-rabbit IgG (H+L) antibodies that have been diluted 3,000-folds with 0.1% Tween20-PBS were dispensed into the respective wells at 100 μl each, and the plate was left still for one hour at room temperature (secondary reaction). After the secondary reaction, the wells were washed with PBS in the same manner, and then 0.8 mM TMB (Tetramethylbenzidine) solution was added thereto at 100 μl per well, to effect color development at 30° C. for five to 20 minutes (color reaction). 100 μl of 1.5 N H3PO4 was added to each well to stop the color reaction, and the absorbance at 450 nm was measured using a microtiter plate reader. According to the instructions provided by the manufacturer, the measured concentrations were calibrated using a lyophilized control reagent.\n(§1) SOD (final concentration: 10 or 100 μM) or vitamin C (final concentration: 10 or 100 μM) was added to DMEM medium. The level of inflammatory cytokines produced by macrophages and the osteoclast differentiation ability were measured by the methods of Examples 1-3 and 2-2 described above, respectively, and compared to the results obtained with C60 (10 μM) (Table 1)."}, "[1]": {"system": "osteoclast precursor cells", "assay": "Osteoclast differentiation (TRAP staining of TRAP-positive multinucleated giant cells)", "format": "cell-based", "conditions": "medium only 78", "procedure": "An osteoclast precursor cell culture kit (Cell Garage Co. Ltd.) was used to observe the effect of C60 on the differentiation of osteoclast precursor cells to mature osteoclasts.\nUsing the above-mentioned osteoclast precursor cell culture kit, osteoclast precursor cells were cultured on a chamber slide in the presence of osteoclast differentiation-inducing factors. C60 was added to the medium at a final concentration of 0.1, 1.0, or 10.0 μM, and the cells were cultured for seven days. The medium, including various additional factors, was changed to a fresh one every three days. On the seventh day, TRAP-positive multinucleated giant cells, which serve as an index of osteoclast differentiation, were observed by TRAP staining (Cell Garage AK04 Lot: FEM).\nThe TRAP staining method was carried out as follows. First, after confirming the formation of osteoclasts, the culture solution was removed, and the cells were washed with PBS at 100 μL/well. Next, a fixative solution (kit) was added at 50 μL/well and reacted for five minutes at room temperature. Then, the fixative solution was removed, and the cells were subjected to three washes using 250 μL/well of deionized distilled water (DDW). One vial of chromogenic substrate was dissolved by adding 5 mL of buffer to prepare a color developing solution. The above color developing solution was added at 50 μL/well and then incubated at 37° C. for 20 minutes. After confirming the color development, the color developing solution was removed, and the reaction was stopped using 250 μL/well of DDW. After washing with DDW three times in total, the wells were removed, and the slide was mounted with a water-soluble mounting medium (NUNK 178599 16-well chamber slides were used).\nas §1"}, "[2]": {"assay": "Antioxidative ability (kit utilizing the redox reaction of copper)", "format": "biochemical", "procedure": "Various concentrations of C60, SOD, and vitamin C solutions were prepared (solvent: DEME medium, SOD (10, and 100 μM), C60 (1, 10, and 100 μM), vitamin C (100 μM)), and the antioxidative ability of each was determined using a kit for measuring antioxidative ability (OXIS Health Product, Oregon, USA) which utilizes the redox reaction of copper."}}, "data": [{"compound": "O=C1O[C@H]([C@@H](O)CO)C(O)=C1O", "note": "[Vitamin C, vitamin C]", "values": [{"measurement": "Concentration of cytokines produced by macrophage, IL-1β", "setting": "macrophages; added antioxidant 10 μM", "value": 6.9, "unit": "ng/ml/1 × 10^5 cells"}, {"measurement": "Concentration of cytokines produced by macrophage, TNF-α", "setting": "macrophages; added antioxidant 10 μM", "value": 116, "unit": "ng/ml/1 × 10^5 cells"}, {"measurement": "Concentration of cytokines produced by macrophage, IL-1β", "setting": "macrophages; added antioxidant 100 μM", "value": 7.5, "unit": "ng/ml/1 × 10^5 cells"}, {"measurement": "Concentration of cytokines produced by macrophage, TNF-α", "setting": "macrophages; added antioxidant 100 μM", "value": 115, "unit": "ng/ml/1 × 10^5 cells"}, {"measurement": "Osteoclast differentiation", "setting": "[1]; added antioxidant 10 μM", "value": "94 TRAP-positive multinucleated giant cells/well"}, {"measurement": "Osteoclast differentiation", "setting": "[1]; added antioxidant 100 μM", "value": "82 TRAP-positive multinucleated giant cells/well"}]}, {"compound": "Superoxide dismutase [SOD]", "values": [{"measurement": "Concentration of cytokines produced by macrophage, IL-1β", "setting": "macrophages; added antioxidant 10 μM", "value": 9.0, "unit": "ng/ml/1 × 10^5 cells"}, {"measurement": "Concentration of cytokines produced by macrophage, TNF-α", "setting": "macrophages; added antioxidant 10 μM", "value": 130, "unit": "ng/ml/1 × 10^5 cells"}, {"measurement": "Concentration of cytokines produced by macrophage, IL-1β", "setting": "macrophages; added antioxidant 100 μM", "value": 7.8, "unit": "ng/ml/1 × 10^5 cells"}, {"measurement": "Concentration of cytokines produced by macrophage, TNF-α", "setting": "macrophages; added antioxidant 100 μM", "value": 106, "unit": "ng/ml/1 × 10^5 cells"}, {"measurement": "Osteoclast differentiation", "setting": "[1]; added antioxidant 10 μM", "value": "82 TRAP-positive multinucleated giant cells/well"}, {"measurement": "Osteoclast differentiation", "setting": "[1]; added antioxidant 100 μM", "value": "75 TRAP-positive multinucleated giant cells/well"}, {"measurement": "ratio to the antioxidative ability of vitamin C (100 μM)", "setting": "[2]; substance at 10 μM", "value": "approximately two-fold"}, {"measurement": "ratio to the antioxidative ability of vitamin C (100 μM)", "setting": "[2]; substance at 100 μM", "value": "approximately 8 fold"}]}]}
